In ChEMBL document CHEMBL3734669, “Δ(5)-Cholenoyl-amino acids as selective and orally available antagonists of the Eph-ephrin system” (Eur J Med Chem, 2015):
pEC50, pIC50: −log10 of the molar value. Values after ≈ are worked out from the molar mass of the structure shown. Each block holds one compound with its values, some of them ahead of it. Active and inactive are the calls of the source. The calls are words filed in the database; no cut-off is given here.

What was measured:
Ephrin type-A receptor 2 [1] = biological target: T1, Ephrin type-A receptor 2 (Homo sapiens, UniProt P29317); assay: Displacement of biotinylated-ephrin-A1 from EphA2 receptor (unknown origin) up to 100 uM preincubated for 1 hr followed by biotinylated-ephrin-A1-Fc addition measured after 4 hrs by ELISA
Ephrin type-A receptor 2 [2] = biological target: T1, Ephrin type-A receptor 2; assay: Displacement of biotinylated-ephrin-A1-Fc from EphA2-Fc receptor (unknown origin) preincubated for 1 hr followed by biotinylated-ephrin-A1-Fc addition measured after 4 hrs by ELISA
[3] = biological target: T2, G-protein coupled bile acid receptor 1 (Homo sapiens, UniProt Q8TDU6); assay: Agonist activity at TGR5 (unknown origin) assessed as cAMP level; type: functional
T2 sequence (Q8TDU6 whole entry): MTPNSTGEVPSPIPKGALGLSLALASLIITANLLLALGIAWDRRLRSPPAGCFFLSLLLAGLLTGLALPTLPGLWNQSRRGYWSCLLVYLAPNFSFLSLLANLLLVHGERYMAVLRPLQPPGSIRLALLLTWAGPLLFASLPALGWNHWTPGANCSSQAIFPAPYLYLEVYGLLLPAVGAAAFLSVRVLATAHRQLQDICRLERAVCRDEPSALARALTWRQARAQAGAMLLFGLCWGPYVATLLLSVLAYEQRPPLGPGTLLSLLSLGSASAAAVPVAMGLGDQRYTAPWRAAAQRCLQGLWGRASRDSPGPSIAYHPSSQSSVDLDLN

[4] = biological target: T3, Nuclear receptor subfamily 1 group I member 2 (Homo sapiens, UniProt O75469); assay: Activation of human recombinant PXR up to 10 uM by alphascreen method
T3 sequence (O75469 whole entry): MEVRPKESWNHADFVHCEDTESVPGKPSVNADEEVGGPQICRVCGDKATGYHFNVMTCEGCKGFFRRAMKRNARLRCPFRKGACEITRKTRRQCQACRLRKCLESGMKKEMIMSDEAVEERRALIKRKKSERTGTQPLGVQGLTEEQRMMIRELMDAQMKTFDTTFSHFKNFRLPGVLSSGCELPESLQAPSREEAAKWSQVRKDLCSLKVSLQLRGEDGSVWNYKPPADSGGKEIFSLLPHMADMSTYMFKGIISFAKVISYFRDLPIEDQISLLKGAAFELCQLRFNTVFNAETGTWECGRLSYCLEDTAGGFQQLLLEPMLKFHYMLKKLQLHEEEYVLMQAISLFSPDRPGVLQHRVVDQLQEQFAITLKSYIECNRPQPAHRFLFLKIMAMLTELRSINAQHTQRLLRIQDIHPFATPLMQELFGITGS

[5] = Cmax in mouse at 30 mg/kg, po administered as single dose by HPLC-MS analysis; type: ADME, organism-based; parameters: dose 30 mg/kg, route oral; details: in vivo
[6] = AUC (0 to t) in mouse at 30 mg/kg, po administered as single dose by HPLC-MS analysis; type: ADME, organism-based; details: in vivo
[7] = Metabolic stability in mouse plasma assessed as compound remaining at 1 uM after 24 hrs by HPLC-ESI-MS/MS analysis; type: ADME, cell-free; details: read-out: Stability
[8] = n-octanol-water distribution coefficient, log D of the compound at pH 7.4 after 4 hrs by shake-flask method; type: physicochemical
[9] = Metabolic stability in mouse liver S9 fractions assessed as compound remaining at 1 uM after 1 hr by HPLC-ESI-MS/MS analysis in presence of NADPH regenerating system; type: ADME, subcellular, Liver S9 fraction; details: read-out: Stability
[10] = Kinetic solubility of the compound in NaCl solution at 25 deg C after 2 hrs by HPLC-ESI-MS/MS analysis; type: physicochemical; details: read-out: Kinetic_solubility
[11] = Cytotoxicity against human PC3 cells at 10 to 30 uM after 2 hrs by LDH release assay; type: cell-based; details: pc-3, 2 h

T1 sequence (P29317 whole entry): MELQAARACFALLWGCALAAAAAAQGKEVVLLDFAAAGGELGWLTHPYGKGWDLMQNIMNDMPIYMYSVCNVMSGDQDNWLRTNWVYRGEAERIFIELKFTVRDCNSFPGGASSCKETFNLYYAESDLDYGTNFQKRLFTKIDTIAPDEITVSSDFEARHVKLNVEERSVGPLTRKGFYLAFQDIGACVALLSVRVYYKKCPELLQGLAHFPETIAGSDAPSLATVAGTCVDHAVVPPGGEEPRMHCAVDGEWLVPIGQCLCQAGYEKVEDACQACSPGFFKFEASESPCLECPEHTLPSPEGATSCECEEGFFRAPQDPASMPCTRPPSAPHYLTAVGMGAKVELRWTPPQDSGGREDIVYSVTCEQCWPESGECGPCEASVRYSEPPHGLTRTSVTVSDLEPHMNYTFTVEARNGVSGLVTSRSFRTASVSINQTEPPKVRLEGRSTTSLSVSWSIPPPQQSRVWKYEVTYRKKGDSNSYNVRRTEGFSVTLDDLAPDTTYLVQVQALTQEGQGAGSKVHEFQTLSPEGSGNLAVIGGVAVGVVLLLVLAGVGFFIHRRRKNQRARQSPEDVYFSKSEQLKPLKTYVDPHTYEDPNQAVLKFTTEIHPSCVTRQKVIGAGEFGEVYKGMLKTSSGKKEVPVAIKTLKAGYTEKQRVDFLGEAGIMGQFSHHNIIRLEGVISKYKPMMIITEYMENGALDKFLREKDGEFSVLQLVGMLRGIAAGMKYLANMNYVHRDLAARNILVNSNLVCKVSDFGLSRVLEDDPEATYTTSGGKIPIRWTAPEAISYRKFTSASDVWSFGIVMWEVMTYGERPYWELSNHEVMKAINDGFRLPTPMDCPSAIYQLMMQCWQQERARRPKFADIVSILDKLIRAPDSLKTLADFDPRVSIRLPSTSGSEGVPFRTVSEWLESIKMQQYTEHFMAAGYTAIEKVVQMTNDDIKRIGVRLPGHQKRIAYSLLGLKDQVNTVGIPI

inhibition (Ephrin type-A receptor 2 [1]): inactive
SMILES: COC(=O)[C@H](Cc1c[nH]c2ccccc12)NC(=O)CC[C@@H](C)[C@H]1CC[C@H]2[C@@H]3CC=C4C[C@@H](O)CC[C@]4(C)[C@H]3CC[C@]12C

SMILES: C[C@H](CCC(=O)O)[C@H]1CC[C@H]2[C@@H]3CC=C4C[C@@H](O)CC[C@]4(C)[C@H]3CC[C@]12C
pIC50 (Ephrin type-A receptor 2 [2]): 4.40

SMILES: C[C@H](CCC(=O)N[C@H](CC(=O)O)Cc1c[nH]c2ccccc12)[C@H]1CC[C@H]2[C@@H]3CC[C@@H]4C[C@H](O)CC[C@]4(C)[C@H]3CC[C@]12C
pEC50 [3]: 5.40
Activity [4]: 30%
Cmax [5]: 14 nM
AUC(0-t) [6]: 21.2 ng·h/mL
remaining at 24 h, 1 µM [7]: 98.3%
logD at 4 h [8]: 4.9
remaining at 1 h, 1 µM [9]: 56%
solubility kinetic at 2 h [10]: 31.8 µM (≈ 18.3 µg/mL)

inhibition (Ephrin type-A receptor 2 [1]): inactive
SMILES: CSCC[C@H](NC(=O)CC[C@@H](C)[C@H]1CC[C@H]2[C@@H]3CC=C4C[C@@H](O)CC[C@]4(C)[C@H]3CC[C@]12C)C(=O)O

inhibition (Ephrin type-A receptor 2 [1]): inactive
SMILES: C[C@H](CCC(=O)NCC(=O)O)[C@H]1CC[C@H]2[C@@H]3CC=C4C[C@@H](O)CC[C@]4(C)[C@H]3CC[C@]12C

pIC50 (Ephrin type-A receptor 2 [2]): < 4.00
SMILES: C[C@H](CCC(=O)N[C@@H](CO)C(=O)O)[C@H]1CC[C@H]2[C@@H]3CC=C4C[C@@H](O)CC[C@]4(C)[C@H]3CC[C@]12C

pIC50 (Ephrin type-A receptor 2 [2]): < 4.00
SMILES: C[C@H](CCC(=O)N[C@@H](Cc1ccccc1)C(=O)O)[C@H]1CC[C@H]2[C@@H]3CC=C4C[C@@H](O)CC[C@]4(C)[C@H]3CC[C@]12C

SMILES: C[C@H](CCC(=O)N[C@@H](Cc1c[nH]c2ccc(O)cc12)C(=O)O)[C@H]1CC[C@H]2[C@@H]3CC=C4C[C@@H](O)CC[C@]4(C)[C@H]3CC[C@]12C
Activity [11]: Non-toxic
